Data published in ChEMBL document CHEMBL1155461, “Emerging targets in osteoporosis disease modification” (J Med Chem, 2010).

Experiments:
Rattus norvegicus [1] = assay: Elevated PTH levels in ovariectomised rats as Cmax after 30 mg/kg oral dose; type: functional, organism-based; parameters: dose 30 mg/kg
Rattus norvegicus [2] = assay: Elevated PTH levels in ovariectomised rats as Cmax after 60 mg/kg oral dose; type: functional, organism-based; parameters: dose 60 mg/kg
Rattus norvegicus [3] = assay: Elevated PTH levels in ovariectomised rats as Cmax after 120 mg/kg oral dose; type: functional, organism-based; parameters: dose 120 mg/kg
Homo sapiens [4] = assay: Induction of bone formation in postmenopausal woman assessed as increase in osteocalcin level at […] after 28 days relative to placebo control; type: functional
Homo sapiens [5] = assay: Induction of bone formation in postmenopausal woman assessed as increase in PINP level at […] after 28 days relative to placebo control; type: functional
Homo sapiens [6] = assay: Induction of bone formation in postmenopausal woman assessed as increase in ALP level at […] after 28 days relative to placebo control; type: functional
[7] = target: Extracellular calcium-sensing receptor (Bos taurus, UniProt P35384); assay: Inhibition of CaSR in bovine parathyroid cells assessed as increase in PTH level; type: cell-based
Sequence of Extracellular calcium-sensing receptor (Bos taurus, UniProt P35384) (P35384 whole entry): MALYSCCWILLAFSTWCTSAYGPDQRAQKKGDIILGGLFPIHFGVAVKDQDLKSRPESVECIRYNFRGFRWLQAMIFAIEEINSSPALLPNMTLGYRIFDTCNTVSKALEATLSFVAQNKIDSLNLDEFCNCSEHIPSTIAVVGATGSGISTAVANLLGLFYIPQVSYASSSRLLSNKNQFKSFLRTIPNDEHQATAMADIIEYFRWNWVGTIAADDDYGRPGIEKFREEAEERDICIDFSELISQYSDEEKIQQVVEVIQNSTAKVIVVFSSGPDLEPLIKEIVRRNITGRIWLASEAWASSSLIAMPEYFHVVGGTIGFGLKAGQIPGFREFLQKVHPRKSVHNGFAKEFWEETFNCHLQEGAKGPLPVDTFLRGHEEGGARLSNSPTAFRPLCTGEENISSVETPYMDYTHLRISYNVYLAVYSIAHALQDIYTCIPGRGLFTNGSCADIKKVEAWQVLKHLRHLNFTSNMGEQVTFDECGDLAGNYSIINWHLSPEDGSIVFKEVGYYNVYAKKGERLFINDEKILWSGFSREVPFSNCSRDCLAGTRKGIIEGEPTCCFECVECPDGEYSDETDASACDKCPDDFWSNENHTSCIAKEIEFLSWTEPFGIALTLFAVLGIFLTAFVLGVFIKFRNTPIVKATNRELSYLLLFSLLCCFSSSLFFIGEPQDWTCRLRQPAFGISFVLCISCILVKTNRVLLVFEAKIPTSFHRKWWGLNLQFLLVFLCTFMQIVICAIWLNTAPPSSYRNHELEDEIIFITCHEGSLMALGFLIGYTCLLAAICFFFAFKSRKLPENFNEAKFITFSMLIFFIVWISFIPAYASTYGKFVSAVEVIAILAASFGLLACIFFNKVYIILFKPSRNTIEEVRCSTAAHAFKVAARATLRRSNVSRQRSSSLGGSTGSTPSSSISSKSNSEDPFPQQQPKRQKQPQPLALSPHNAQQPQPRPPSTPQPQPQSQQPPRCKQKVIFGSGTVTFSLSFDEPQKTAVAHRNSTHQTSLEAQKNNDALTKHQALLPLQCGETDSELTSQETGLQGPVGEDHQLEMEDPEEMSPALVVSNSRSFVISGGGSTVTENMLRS

[8] = Oral bioavailability in rat; type: ADME, organism-based; details: in vivo
[9] = target: T1, Extracellular calcium-sensing receptor (Homo sapiens, UniProt P41180)
T1 sequence (P41180 whole entry): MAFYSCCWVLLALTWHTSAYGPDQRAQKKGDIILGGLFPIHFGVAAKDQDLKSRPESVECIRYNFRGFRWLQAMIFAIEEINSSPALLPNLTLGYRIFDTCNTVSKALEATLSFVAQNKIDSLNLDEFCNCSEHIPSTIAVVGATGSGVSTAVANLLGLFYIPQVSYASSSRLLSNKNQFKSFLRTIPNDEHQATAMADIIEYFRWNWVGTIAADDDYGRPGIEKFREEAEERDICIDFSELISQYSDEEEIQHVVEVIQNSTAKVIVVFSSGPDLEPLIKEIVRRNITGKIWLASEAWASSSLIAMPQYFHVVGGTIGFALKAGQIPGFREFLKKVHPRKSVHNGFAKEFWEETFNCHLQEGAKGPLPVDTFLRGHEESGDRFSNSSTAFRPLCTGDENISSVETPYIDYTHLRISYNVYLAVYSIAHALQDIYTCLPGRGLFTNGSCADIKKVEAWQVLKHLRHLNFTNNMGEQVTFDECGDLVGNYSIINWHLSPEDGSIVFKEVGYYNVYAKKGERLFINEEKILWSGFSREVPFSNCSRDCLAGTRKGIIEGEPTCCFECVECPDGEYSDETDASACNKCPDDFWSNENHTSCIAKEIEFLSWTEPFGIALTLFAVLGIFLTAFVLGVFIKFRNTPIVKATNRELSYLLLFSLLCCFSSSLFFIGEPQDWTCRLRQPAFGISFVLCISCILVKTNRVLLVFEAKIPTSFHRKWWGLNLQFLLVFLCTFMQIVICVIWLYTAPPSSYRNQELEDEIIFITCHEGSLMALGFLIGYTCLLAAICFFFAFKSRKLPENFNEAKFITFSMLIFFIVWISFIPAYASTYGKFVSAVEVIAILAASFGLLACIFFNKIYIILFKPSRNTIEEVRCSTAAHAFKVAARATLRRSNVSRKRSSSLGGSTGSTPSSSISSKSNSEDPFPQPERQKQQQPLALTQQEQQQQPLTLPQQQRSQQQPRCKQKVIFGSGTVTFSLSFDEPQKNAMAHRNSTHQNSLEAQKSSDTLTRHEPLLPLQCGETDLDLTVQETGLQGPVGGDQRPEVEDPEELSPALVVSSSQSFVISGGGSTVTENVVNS

[10] = target: Prostaglandin E2 receptor EP3 subtype (Mus musculus, UniProt P30557); assay: Binding affinity to mouse EP3 receptor by competitive binding assay
Sequence of Prostaglandin E2 receptor EP3 subtype (P30557 whole entry): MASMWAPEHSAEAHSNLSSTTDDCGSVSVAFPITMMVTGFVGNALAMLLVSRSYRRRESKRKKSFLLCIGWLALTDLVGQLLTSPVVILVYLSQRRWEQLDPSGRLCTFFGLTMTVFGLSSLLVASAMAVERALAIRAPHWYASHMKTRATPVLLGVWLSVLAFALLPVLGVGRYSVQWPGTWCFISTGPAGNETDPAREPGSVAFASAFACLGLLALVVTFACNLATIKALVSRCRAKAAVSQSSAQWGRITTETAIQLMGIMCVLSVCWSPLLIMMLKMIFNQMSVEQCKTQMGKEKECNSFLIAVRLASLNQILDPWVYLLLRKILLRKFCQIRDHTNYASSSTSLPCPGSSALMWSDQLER

[11] = target: Prostaglandin E2 receptor EP4 subtype (Mus musculus, UniProt P32240); assay: Agonist activity at mouse EP4 receptor expressed in CHO cells assessed as cAMP production; type: functional, cell-based
Sequence of Prostaglandin E2 receptor EP4 subtype (P32240 whole entry): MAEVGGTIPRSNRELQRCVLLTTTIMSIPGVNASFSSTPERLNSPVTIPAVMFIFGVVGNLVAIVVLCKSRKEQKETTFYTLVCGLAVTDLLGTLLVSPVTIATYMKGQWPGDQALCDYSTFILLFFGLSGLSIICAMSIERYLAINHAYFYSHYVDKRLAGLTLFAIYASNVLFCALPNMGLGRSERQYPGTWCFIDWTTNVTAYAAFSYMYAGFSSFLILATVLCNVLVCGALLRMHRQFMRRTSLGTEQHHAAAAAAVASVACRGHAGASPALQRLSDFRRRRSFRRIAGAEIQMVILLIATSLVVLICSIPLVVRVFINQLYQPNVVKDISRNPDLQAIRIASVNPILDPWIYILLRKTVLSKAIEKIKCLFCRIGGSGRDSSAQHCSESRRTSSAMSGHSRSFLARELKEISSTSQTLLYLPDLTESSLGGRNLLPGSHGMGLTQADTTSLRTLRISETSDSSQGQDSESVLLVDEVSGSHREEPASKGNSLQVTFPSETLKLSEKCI

Rattus norvegicus [12] = assay: Induction of bone formation in ovariectomized rat assessed as trabecular bone mineral content at 3 ug/kg, sc BID for 11 weeks (RVb = 200 mg/cm3); type: functional, Trabecula
Mus musculus = assay: Induction of bone formation in mouse assessed as increase in bone mineral content at 300 ug/kg administered into dorsal muscle pouch relative to control; type: functional, Muscle tissue
Homo sapiens [13] = assay: Antiosteoporotic activity in men with osteoporosis assessed as decrease in bone resorption-associated serum CTX-1 level at 250 mg/kg after 10 to 14 days; type: functional, organism-based; parameters: dose 250 mg/kg
[14] = target: Parathyroid hormone/parathyroid hormone-related peptide receptor (Homo sapiens, UniProt Q03431)
Sequence of Parathyroid hormone/parathyroid hormone-related peptide receptor (Q03431 whole entry): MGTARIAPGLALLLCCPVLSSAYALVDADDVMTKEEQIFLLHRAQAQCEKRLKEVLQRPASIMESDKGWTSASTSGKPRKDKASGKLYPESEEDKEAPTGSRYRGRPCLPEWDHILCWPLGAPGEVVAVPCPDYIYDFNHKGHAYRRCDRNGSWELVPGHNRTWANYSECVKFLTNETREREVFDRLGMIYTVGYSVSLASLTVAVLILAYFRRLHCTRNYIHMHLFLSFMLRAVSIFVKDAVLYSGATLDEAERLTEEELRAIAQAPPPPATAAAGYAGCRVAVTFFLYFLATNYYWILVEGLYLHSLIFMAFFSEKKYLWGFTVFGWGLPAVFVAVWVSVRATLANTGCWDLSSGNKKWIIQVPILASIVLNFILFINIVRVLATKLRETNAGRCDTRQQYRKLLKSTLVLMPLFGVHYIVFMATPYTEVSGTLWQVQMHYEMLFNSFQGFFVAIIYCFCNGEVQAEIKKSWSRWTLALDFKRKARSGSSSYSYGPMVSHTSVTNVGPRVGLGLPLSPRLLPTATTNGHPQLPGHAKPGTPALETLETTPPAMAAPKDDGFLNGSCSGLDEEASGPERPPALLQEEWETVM

[15] = Selectivity for cathepsin K over cathepsin B
[16] = Selectivity for cathepsin K over cathepsin L
[17] = Selectivity for cathepsin K over cathepsin S
Osteoclast = assay: Inhibition of bone resorption in human osteoclast assessed as decrease in CTX-1 level at 100 uM; type: functional
[18] = Bioavailability in dog; type: ADME, organism-based, Canis lupus familiaris; details: in vivo
[19] = Clearance in dog; type: ADME, organism-based, Canis lupus familiaris; details: in vivo
Homo sapiens [20] = species: Homo sapiens; assay: Plasma protein binding in human; details: read-out: PPB (converted)

For CC(C)(CC1Cc2ccccc2C1)NC[C@@H](O)COc1cc(CCC(=O)O)cc(F)c1F.Cl [RONACALERET HYDROCHLORIDE], the Cmax PTH (Rattus norvegicus [1]) was 33 pM, the Cmax PTH (Rattus norvegicus [2]) was 66 pM and the Cmax PTH (Rattus norvegicus [3]) was 68 pM. The Activity (Homo sapiens [4]) was 63%, the Activity (Homo sapiens [5]) was 79% and the Activity (Homo sapiens [6]) was 35%.
CC(C)(Cc1ccc2ccccc2c1)NC[C@@H](O)COc1cccc(Cl)c1C#N showed an EC50 [7] of 0.041 µM.
Work on Cc1ccc(CC(C)(C)NC[C@@H](O)CO[C@H](C)c2ccccc2[C@@H]2C[C@@H]3C[C@H]2[C@H]2[C@H](C(=O)O)[C@@H]32)cc1F yielded a bioavailability [8] of 60% and an IC50 [9] of 0.025 µM.
COCc1cccc(C[C@H](O)/C=C/[C@H]2[C@H](O)CC(=O)[C@@H]2CCSCCCC(=O)OC)c1 [RIVENPROST] gave a Ki [10] of 0.056 µM, an EC50 [11] of 0.0016 µM and an Activity (Rattus norvegicus [12]) of 378 mg/cm3. The “fold change (FC)” value (Mus musculus) was 3.
Work on CCCCN1C(=O)C(=C(N)N)C(=O)N(CCCC)C1=O yielded an EC50 (Homo sapiens [13]) of 1.5 µM and an EC50 [14] of 3.2 µM.
With CC(C)C[C@H](NC(=O)c1ccc(C(C)(C)C)cc1)C(=O)N1CC[C@@H]2[C@H]1C(=O)CN2C(=O)c1ccccc1 the Selectivity ratio [15] was > 990, the Selectivity ratio [16] was > 347 and the Selectivity ratio [17] was > 446. For the same compound, the inhibition at 100 µM (Osteoclast) was 75%.
In the case of COc1ccc([C@@H](CCC[C@H](O)CCc2ccc3c(n2)NCCC3)CC(=O)O)cn1, the bioavailability [18] is reported as 60%, the clearance [19] is reported as 0.15 L/h/kg and the fraction unbound (Homo sapiens [20]) is reported as 0.07.
